According to US20260373175A1, “STABLE AST-3424 API PRODUCT, PREPARATION METHOD THEREFOR, AND STORAGE THEREOF” (ASCENTAWITS PHARMACEUTICALS, LTD., priority 2022, published 2026):
In brackets after ≈: the same amount, converted by molar mass. Entries after “also recorded” stand apart in the source; their conditions may differ.

Tests used:
Assay type in all cases: physicochemical
[1] = Solubility test of AST-3424 in different solvents at 25 °C
Method: A proper amount of AST-3424 (hereinafter referred to as active pharmaceutical ingredient or API) was taken and placed into a proper container, a solvent was gradually added thereto, the mixture was uniformly shaken, the process of the solution changing from turbidity (excessive oil drops of AST-3424 exist) to clarification (AST-3424 is completely dissolved) was observed, the volume of the solvent for clarifying the mixed solution of AST-3424 was recorded, and the solubility was calculated.
In addition, water was further used for the experiment.

[2] = Stability of AST-3424 solutions (about 90 mg/mL) in different solvents, high-temperature destruction 40 °C, 3 days
Method: The AST-3424 solutions (contents were about 90 mg/mL) dissolved in different solvents were subjected to high-temperature destruction (40 °C, 3 days). The purity was detected. The destructed solutions were compared with samples not subjected to the destruction (40 °C, 3 days). The stability of AST-3424 in different solvents was examined.
Purity was determined by using an HPLC method:
Mobile phase: • A: 10 mmol/L ammonium acetate solution obtained by dissolving ammonium acetate in a mixed solvent of 95% water and 5% acetonitrile by volume ratio; and • B: 8 mmol/L ammonium acetate solution obtained by dissolving ammonium acetate in a mixed solvent of 95% acetonitrile and 5% water by volume ratio; and
A gradient elution was performed.

[3] = Long-term stability study at −20±5 °C and 5±3 °C away from light (HDPE bottle, LDPE bag, aluminum foil bag); conditions: pure API, current limited stability data
Source text: (§1) The samples used for the stability study were inner-packaged in an HDPE bottle with a screw cap and outer-packaged in an LDPE bag with a pull button placed in a heat-sealing aluminum foil bag.
(§2) The water content (mass percentage), content, purity (chemical purity) and enantiomeric excess (e.e %) values were detected at 0, 1, 2, 3, 6, 9, 12, 18, 24, 36 and 42 months, respectively. The samples of batches 024101, 034101 and 044101 were used in the experiments.

[4] = Accelerated stability experiment at 25±2 °C and 60±5% RH away from light; conditions: 25 °C, after 2 months
Source text: as §1, §2

[5] = Observation of viscosity of AST-3424 (FIG. 3); conditions: neat AST-3424, FIG. 3
Source text: Therefore, it is inconvenient to transfer and sub-package it, and solvents are needed to reduce the viscosity thereof.

[6] = Choice of solvent during distillation in the preparation of AST-3424
Source text: In the preparation of the AST-3424, in order to remove the solvent, water, etc., used in the preparation and separation processes by distillation as much as possible, the applicant mixes the oily AST-3424 product separated and purified with various common solvents (ethyl acetate, ethanol, methanol, etc.) and performs distillation under reduced pressure after the mixture is heated at a lower temperature. […] Therefore, ethanol is ultimately used through initial confirmation.

[7] = Stability of AST-3424 solutions (about 90 mg/mL) in different solvents, high-temperature destruction 40 °C, 3 days; conditions: dissolved in propylene glycol, compared with other solvents
[8] = absolute ethanol, 40 °C, 3 days
[9] = propylene glycol, 40 °C, 3 days

SMILES: C[C@H](OP(=O)(N1CC1)N1CC1)c1ccc([N+](=O)[O-])c(Oc2cccc(C(=O)N(C)C)c2)c1 [AST-3424, (S)-1-(3-(3-N,N-dimethylaminocarbonyl)phenoxy-4-nitrophenyl)-1-ethyl-N,N′bis(ethylene)phosphoramidate]
- Phenomenon (solubility in words) ([1]; ethanol, table cell continues '(mutually soluble)'): good solubilities; also recorded: good solubility and stability; also recorded: Very soluble
- Phenomenon (solubility in words) ([1]; ethyl acetate, table cell continues '(mutually soluble)'): Very soluble
- solubility ([1]; organic solvent or mixture, ethanol): > 1000 mg/mL
- solubility ([1]; organic solvent or mixture, ethyl acetate): > 1000 mg/mL
- solubility ([1]; organic solvent or mixture, propylene glycol): > 100 mg/mL
- Phenomenon (solubility in words) ([1]; propylene glycol, table cell continues 'soluble'): good solubilities; also recorded: good solubility and stability; also recorded: Freely
- solubility ([1]; water): ~20 mg/mL (≈ 43.4 mM)
- Phenomenon (solubility in words) ([1]; water, table cell continues 'soluble'): sparingly soluble; also recorded: poor solubility and stability
- Chemical purity ([2]; 0 day (not subjected to destruction)): 99.3%
- Stability in solvent ([2]; absolute ethanol): stable; also recorded: good solubility and stability
- Chemical purity [2, 8]: 98.8%
- Content of AST-3424 [2, 8]: 89.5 mg/mL
- Stability in solvent ([2]; acetonitrile): stable
- Chemical purity ([2]; acetonitrile, 40 °C, 3 days): 99.3%
- Content of AST-3424 ([2]; acetonitrile, 40 °C, 3 days): 91.0 mg/mL
- Stability in solvent ([2]; ethyl acetate): stable
- Chemical purity ([2]; ethyl acetate, 40 °C, 3 days): 96.6%
- Content of AST-3424 ([2]; ethyl acetate, 40 °C, 3 days): 96.1 mg/mL
- Stability in solvent ([2]; propylene glycol): stable; also recorded: good solubility and stability
- Chemical purity [2, 9]: 96.8%
- Content of AST-3424 [2, 9]: 83.5 mg/mL
- Stability in solvent ([2]; water): poor solubility and stability
- Chemical purity ([2]; water, 40 °C, 3 days): 75.4%
- Content of AST-3424 ([2]; water, 40 °C, 3 days): 89.2 mg/mL
- Stability compared with AST-3424 ethanol solution [3]: better than that of the AST-3424 ethanol solution
- Degradation [4]: degraded rapidly
- Purity [4]: less than 98%
- Physical state / viscosity [5]: viscous oily substance
- solubility ([6]; ethanol): almost infinitely dissolve
- solubility ([6]; ethyl acetate): not high enough
- solubility ([6]; methanol): good solubility
- Viscosity [7]: obviously higher viscosity; also recorded: high viscosity
